Measurements taken from PMC7180638, “Synthesis of Pyrrolidine Monocyclic Analogues of Pochonicine and Its Stereoisomers: Pursuit of Simplified Structures and Potent β-N-Acetylhexosaminidase Inhibition” (Molecules, 2020).
Where a name gives a salt, the structure may show the parent alone. Read-outs that look alike come from different tables or passages of the source.

Columns and labels:
Assay type in all cases: biochemical
[1] = molecular target: β-N-Acetylgalactosaminidase (HL60); test: β-N-Acetylgalactosaminidase (HL60) inhibition
Procedure: (§1) With rat intestinal maltase as an exception, other enzymes were purchased from Sigma-Aldrich Chemical Co. (St. Louis, MO, USA). Brush border membranes prepared from rat small intestine according to the method of Kessler et al. were assayed at pH 6.8 for rat intestinal maltase using maltose. The released D-glucose was determined colorimetrically using the Glucose CII-test Wako (Wako Pure Chemical Ind.; Osaka, Japan). Other glycosidase activities were determined using an appropriate p-nitrophenyl glycoside as substrate in a buffer solution at the optimal pH value of each enzyme. The reaction was stopped by adding 400 mM Na2CO3. The released p-nitrophenol was measured spectrometrically at 400 nm.

[2] = molecular target: α-L-Rhamnosidase (P. decumbens); test: α-L-Rhamnosidase (P. decumbens) inhibition
Procedure: as §1

[3] = molecular target: β-Glucosidase (Almond); test: β-Glucosidase (almond) inhibition
Procedure: as §1

[4] = molecular target: α-Glucosidase (Yeast) (Saccharomyces cerevisiae, UniProt P53341); test: α-Glucosidase (yeast) inhibition
α-Glucosidase (Yeast), sequence (P53341 whole entry): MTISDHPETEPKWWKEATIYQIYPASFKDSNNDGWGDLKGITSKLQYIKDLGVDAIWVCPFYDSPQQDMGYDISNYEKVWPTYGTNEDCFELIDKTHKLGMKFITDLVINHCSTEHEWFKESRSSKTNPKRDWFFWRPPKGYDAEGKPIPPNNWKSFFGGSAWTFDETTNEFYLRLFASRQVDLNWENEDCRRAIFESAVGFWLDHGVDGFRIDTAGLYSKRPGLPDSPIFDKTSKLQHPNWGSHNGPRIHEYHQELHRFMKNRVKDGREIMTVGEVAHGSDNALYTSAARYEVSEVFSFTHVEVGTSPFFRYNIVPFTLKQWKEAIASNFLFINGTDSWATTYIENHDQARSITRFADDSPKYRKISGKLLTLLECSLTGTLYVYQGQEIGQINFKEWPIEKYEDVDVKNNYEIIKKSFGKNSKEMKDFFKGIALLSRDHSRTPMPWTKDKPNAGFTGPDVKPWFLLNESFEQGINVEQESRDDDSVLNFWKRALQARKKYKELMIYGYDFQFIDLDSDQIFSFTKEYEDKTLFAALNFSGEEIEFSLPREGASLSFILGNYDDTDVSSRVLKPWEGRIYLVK
Procedure: as §1

[5] = molecular target: T1, β-Glucuronidase (Bovine liver) (Bos taurus, UniProt A3KMY8); test: β-Glucuronidase (bovine liver) inhibition
T1 construct: purchased Sigma-Aldrich Chemical Co; host or cells: bovine liver
T1 sequence (A3KMY8 1-652): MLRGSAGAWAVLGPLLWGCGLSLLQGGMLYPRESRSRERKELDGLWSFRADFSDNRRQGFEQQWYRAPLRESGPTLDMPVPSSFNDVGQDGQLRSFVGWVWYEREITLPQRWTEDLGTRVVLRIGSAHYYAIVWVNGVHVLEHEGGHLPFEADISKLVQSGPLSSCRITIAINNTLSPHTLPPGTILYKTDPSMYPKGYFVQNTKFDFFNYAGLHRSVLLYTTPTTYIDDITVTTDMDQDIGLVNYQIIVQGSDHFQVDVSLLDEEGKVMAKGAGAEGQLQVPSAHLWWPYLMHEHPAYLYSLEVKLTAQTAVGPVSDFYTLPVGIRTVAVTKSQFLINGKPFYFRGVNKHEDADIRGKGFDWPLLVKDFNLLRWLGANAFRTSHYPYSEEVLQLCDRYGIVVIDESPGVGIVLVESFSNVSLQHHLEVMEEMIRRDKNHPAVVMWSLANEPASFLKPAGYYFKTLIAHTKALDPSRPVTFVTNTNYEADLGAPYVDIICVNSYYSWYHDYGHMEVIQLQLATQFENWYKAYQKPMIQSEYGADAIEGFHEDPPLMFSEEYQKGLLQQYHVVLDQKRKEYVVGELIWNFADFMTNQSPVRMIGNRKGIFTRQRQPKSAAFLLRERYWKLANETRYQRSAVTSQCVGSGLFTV
Procedure: as §1

[6] = molecular target: T2, α-Galactosidase (Coffee beans) (Coffea arabica, UniProt Q42656); test: α-Galactosidase (coffee beans) inhibition
T2 construct: purchased Sigma-Aldrich Chemical Co
T2 sequence (Q42656 16-378): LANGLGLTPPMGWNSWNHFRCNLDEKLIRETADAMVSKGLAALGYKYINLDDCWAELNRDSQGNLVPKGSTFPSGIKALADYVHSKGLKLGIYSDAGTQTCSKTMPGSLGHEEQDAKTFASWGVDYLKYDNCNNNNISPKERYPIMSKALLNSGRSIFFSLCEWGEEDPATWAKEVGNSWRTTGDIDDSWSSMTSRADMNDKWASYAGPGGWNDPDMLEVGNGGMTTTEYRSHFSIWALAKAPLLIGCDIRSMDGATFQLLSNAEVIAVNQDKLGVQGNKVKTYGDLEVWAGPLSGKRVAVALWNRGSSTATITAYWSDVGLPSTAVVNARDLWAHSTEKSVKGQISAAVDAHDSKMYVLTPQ
Procedure: as §1

[7] = molecular target: T3, β-Glucuronidase (E. coli) (Escherichia coli, UniProt P05804); test: β-Glucuronidase (E. coli) inhibition
T3 construct: purchased Sigma-Aldrich Chemical Co
T3 sequence (P05804 whole entry): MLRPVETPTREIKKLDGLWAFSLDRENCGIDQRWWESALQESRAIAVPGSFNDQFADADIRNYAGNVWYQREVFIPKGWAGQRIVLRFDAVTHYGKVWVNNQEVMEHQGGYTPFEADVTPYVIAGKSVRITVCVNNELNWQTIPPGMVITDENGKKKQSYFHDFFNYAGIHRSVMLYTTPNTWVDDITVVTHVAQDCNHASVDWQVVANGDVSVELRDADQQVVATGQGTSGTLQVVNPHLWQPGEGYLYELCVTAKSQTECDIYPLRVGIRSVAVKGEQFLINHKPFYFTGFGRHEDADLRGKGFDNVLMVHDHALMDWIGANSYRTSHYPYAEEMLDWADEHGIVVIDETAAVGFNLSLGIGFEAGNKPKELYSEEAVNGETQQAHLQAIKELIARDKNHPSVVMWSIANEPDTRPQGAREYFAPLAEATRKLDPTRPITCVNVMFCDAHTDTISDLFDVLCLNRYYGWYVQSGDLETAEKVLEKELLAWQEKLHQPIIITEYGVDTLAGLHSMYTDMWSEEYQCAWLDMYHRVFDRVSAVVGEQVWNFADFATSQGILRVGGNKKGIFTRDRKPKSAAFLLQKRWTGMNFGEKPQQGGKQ
Procedure: as §1

[8] = molecular target: T4, α-L-Fucosidase (Bovine kidney) (Bos taurus, UniProt Q2KIM0); test: α-L-Fucosidase (bovine kidney) inhibition
T4 construct: purchased Sigma-Aldrich Chemical Co; host or cells: bovine kidney
T4 sequence (Q2KIM0 23-468): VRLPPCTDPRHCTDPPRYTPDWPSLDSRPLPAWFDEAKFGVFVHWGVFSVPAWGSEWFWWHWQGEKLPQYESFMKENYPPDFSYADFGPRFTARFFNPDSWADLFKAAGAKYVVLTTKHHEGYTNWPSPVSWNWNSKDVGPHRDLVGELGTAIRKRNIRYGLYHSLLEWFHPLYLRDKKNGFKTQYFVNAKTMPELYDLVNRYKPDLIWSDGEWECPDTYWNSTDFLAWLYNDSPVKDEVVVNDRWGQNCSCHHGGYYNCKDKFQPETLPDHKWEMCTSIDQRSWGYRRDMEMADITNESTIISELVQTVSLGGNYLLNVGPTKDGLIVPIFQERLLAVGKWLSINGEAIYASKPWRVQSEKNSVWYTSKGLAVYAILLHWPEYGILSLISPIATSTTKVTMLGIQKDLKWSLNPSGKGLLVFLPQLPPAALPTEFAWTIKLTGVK
Procedure: as §1

[9] = molecular target: T5, Amyloglucosidase (A. niger) (Aspergillus niger, UniProt P69328); test: Amyloglucosidase (A. niger) inhibition
T5 construct: purchased Sigma-Aldrich Chemical Co
T5 sequence (P69328 25-640): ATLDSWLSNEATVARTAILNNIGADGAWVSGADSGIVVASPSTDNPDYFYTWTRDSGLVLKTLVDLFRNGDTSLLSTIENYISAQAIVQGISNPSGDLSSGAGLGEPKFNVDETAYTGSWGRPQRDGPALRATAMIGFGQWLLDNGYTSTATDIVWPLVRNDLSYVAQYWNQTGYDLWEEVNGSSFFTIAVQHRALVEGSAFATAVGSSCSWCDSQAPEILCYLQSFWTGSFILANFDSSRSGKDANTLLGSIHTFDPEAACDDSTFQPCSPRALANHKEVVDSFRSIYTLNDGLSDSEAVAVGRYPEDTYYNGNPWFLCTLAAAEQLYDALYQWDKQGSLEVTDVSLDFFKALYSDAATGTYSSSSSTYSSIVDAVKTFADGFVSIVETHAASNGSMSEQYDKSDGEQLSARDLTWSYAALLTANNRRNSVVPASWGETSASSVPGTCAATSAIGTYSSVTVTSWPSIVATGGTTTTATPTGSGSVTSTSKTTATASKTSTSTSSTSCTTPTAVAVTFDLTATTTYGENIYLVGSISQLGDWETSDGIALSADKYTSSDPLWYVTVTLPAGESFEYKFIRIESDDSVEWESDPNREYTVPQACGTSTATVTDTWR
Procedure: as §1

[10] = molecular target: β-N-Acetylhexosaminidase (Jack bean); test: β-N-Acetylhexosaminidase (Jack bean) inhibition; details: for IC50: β-N-Acetylhexosaminidase (β-GlcNAcase)
Procedure: as §1

[11] = molecular target: T6, α,α-Trehalase (Porcine kidney) (Sus scrofa, UniProt I3LIR5); test: α,α-Trehalase (porcine kidney) inhibition
T6 construct: purchased Sigma-Aldrich Chemical Co; host or cells: porcine kidney
T6 sequence (I3LIR5 24-583): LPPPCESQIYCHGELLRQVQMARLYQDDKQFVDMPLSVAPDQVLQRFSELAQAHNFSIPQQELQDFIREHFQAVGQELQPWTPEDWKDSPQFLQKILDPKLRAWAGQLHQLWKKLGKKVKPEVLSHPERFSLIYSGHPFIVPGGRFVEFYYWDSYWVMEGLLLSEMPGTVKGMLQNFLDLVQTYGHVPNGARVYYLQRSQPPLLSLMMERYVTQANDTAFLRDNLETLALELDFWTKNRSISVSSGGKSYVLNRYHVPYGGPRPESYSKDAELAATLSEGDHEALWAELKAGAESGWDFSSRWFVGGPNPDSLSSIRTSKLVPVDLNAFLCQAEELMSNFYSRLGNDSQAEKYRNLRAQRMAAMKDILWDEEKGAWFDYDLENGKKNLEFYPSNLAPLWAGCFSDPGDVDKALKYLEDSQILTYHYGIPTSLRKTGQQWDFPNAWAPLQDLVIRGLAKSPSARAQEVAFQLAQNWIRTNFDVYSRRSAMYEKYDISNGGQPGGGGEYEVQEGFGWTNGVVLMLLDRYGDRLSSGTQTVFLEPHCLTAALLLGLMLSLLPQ
Procedure: as §1

[12] = molecular target: β-N-Acetylhexosaminidase (Bovine liver); test: β-N-Acetylhexosaminidase (bovine liver) inhibition; details: for IC50: β-N-Acetylhexosaminidase (β-GlcNAcase); for Inhibition % at 1000 μM: β-N-Acetylhexosaminidase
Procedure: as §1

[13] = read-out: Inhibition % at 1000 μM
[14] = 1000 μM, read-out: Inhibition % at 1000 μM
[15] = α-Glucosidase, Yeast, read-out: IC50

Row | Compound | IC50 [1] | Inhibition % at 1000 μM [1] | IC50 [2] | Inhibition % at 1000 μM [2] | IC50 [3] | Inhibition % at 1000 μM [3] | inhibition at 1000 µM [4, 13] | inhibition at 1000 µM [5, 14] | inhibition at 1000 µM ([5]; read-out: IC50) | inhibition at 1000 µM [6, 14] | inhibition at 1000 µM ([6]; read-out: IC50) | inhibition at 1000 µM [7, 14] | inhibition at 1000 µM ([7]; read-out: IC50) | inhibition at 1000 µM [8, 14] | inhibition at 1000 µM ([8]; read-out: IC50) | inhibition at 1000 µM [9, 14] | inhibition at 1000 µM ([9]; read-out: IC50) | inhibition at 1000 µM [11, 14] | inhibition at 1000 µM ([11]; read-out: IC50) | inhibition at 1000 µM [4, 15] | also measured
1 | CC(=O)NC[C@@H]1N[C@H](CO)[C@H](O)[C@H]1O [F-10a, 1-N-acetylamino-2,5-imino-1,2,5-trideoxy-L-glucitol hydrochloride] | NI (No Inhibition (less than 50% at 1000 μM)) | 0.9% | NI (No Inhibition (less than 50% at 1000 μM)) | 5.3% | NI (No Inhibition (less than 50% at 1000 μM)) | 11.6% | 6.91% | 0% | < 50% | 0.36% | < 50% | 0% | < 50% | 8.4% | < 50% | 2.8% | < 50% | 3% | < 50% |  | inhibition at 1000 µM ([4]; read-out: IC50): < 50%; IC50 [10]: NI (No Inhibition (less than 50% at 1000 μM)); Inhibition % at 1000 μM ([10]; β-N-Acetylhexosaminidase, 1000 μM): 42%; IC50 [12]: NI (No Inhibition (less than 50% at 1000 μM)); Inhibition % at 1000 μM [12]: 23.2%
2 | CC(=O)NC[C@H]1N[C@H](CO)[C@H](O)[C@H]1O [F-10b, 1-N-acetylamino-2,5-imino-1,2,5-trideoxy-D-iditol hydrochloride] | NI (No Inhibition (less than 50% at 1000 μM)) | 36.1% | NI (No Inhibition (less than 50% at 1000 μM)) | 3.0% | NI (No Inhibition (less than 50% at 1000 μM)) | 19.8% | 0% | 0% | < 50% | 0% | < 50% | 0% | < 50% | 3.9% | < 50% | 5.7% | < 50% | 0% | < 50% | < 50% | IC50 ([10]; read-out: IC50): 98 µM; IC50 ([12]; read-out: IC50): 652 µM
3 | CC(=O)NC[C@H]1N[C@@H](CO)[C@H](O)[C@@H]1O [G-10, 1-N-acetylamino-2,5-imino-1,2,5-trideoxy-D-allitol hydrochloride] | NI (No Inhibition (less than 50% at 1000 μM)) | 15.9% | NI (No Inhibition (less than 50% at 1000 μM)) | 9.5% | NI (No Inhibition (less than 50% at 1000 μM)) | 15.3% | 0% | 0% | < 50% | 0% | < 50% | 0% | < 50% | 11.5% | < 50% | 7.6% | < 50% | 5.6% | < 50% | < 50% | IC50 ([10]; read-out: IC50): 26 µM; IC50 ([12]; read-out: IC50): 299 µM
4 | CC(=O)NC[C@@H]1N[C@H](CO)[C@@H](O)[C@H]1O [H-10, 1-N-acetylamino-2,5-imino-1,2,5-trideoxy-L-allitol hydrochloride] | NI (No Inhibition (less than 50% at 1000 μM)) | 5.3% | NI (No Inhibition (less than 50% at 1000 μM)) | 7.7% | NI (No Inhibition (less than 50% at 1000 μM)) | 17.1% | 0% | 0% | < 50% | 0% | < 50% | 0% | < 50% | 22.3% | < 50% | 8.3% | < 50% | 40.9% | < 50% | < 50% | IC50 ([10]; read-out: IC50): 241 µM; IC50 [12]: NI (No Inhibition (less than 50% at 1000 μM)); Inhibition % at 1000 μM [12]: 33.7%
